ChEMBL document CHEMBL1134086, “Discovery of potent and selective phenylalanine derived CCR3 receptor antagonists. Part 2” (Bioorg Med Chem Lett, 2001)

What was measured:
[1] = target: T1, C-C chemokine receptor type 3 (Homo sapiens, UniProt P51677); test: Antagonist activity against C-C chemokine receptor type 3; assay type: functional
T1 sequence (P51677 whole entry): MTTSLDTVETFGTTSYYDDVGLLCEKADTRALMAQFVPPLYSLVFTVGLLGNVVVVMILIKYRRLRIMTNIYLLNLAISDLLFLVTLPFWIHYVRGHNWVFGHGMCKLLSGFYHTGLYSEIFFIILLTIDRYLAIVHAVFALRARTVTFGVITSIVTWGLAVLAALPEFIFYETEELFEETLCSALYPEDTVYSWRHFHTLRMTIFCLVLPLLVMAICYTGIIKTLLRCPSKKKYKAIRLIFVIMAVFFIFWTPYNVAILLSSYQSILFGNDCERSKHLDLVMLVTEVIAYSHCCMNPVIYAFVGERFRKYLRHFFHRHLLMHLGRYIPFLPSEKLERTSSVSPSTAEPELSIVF

Homo sapiens = organism: Homo sapiens; test: Ability to block the eotaxin induced intracellular calcium mobilization in primary human eosinophils was determined; assay type: functional

## C=C(NC(=O)[C@H](Cc1ccc([N+](=O)[O-])cc1)NC(=O)c1cccc2ccccc12)C(=O)OCC
[1]
  IC50: 350 nM

## C[C@@H](NC(=O)[C@H](Cc1ccc([N+](=O)[O-])cc1)NC(=O)c1cccc2ccccc12)C(=O)OC(C)(C)C
[1]
  IC50: 20 nM

## C[C@H](NC(=O)[C@H](Cc1ccncc1)NC(=O)c1cccc2ccccc12)C(=O)Nc1ccc(-c2ccccc2)cc1
[1]
  IC50: 600 nM

## Cc1ccc(C(=O)N[C@@H](Cc2ccc(Cl)cc2)C(=O)N[C@@H](C)C(=O)Nc2ccc(Cl)cc2)c(C)c1
[1]
  IC50: 45 nM

## COc1ccc(NC(=O)[C@H](C)NC(=O)[C@H](Cc2cscn2)NC(=O)c2cccc3ccccc23)cc1
[1]
  IC50: 500 nM

## O=C(N[C@@H](Cc1ccc([N+](=O)[O-])cc1)c1nccs1)c1cccc2ccccc12
[1]
  IC50: 32000 nM

## O=C(N[C@@H](Cc1ccc([N+](=O)[O-])cc1)c1nc(C(=O)N2CCc3ccccc3C2)cs1)c1cccc2ccccc12
[1]
  IC50: 12500 nM

## O=C(Nc1ccccc1)c1csc([C@H](Cc2ccc([N+](=O)[O-])cc2)NC(=O)c2cccc3ccccc23)n1
[1]
  IC50: 7700 nM

## C[C@H](NC(=O)[C@H](Cc1ccc([N+](=O)[O-])cc1)NC(=O)c1cccc2ccccc12)C(=O)Nc1ccccc1
[1]
  IC50: 190 nM

## COc1ccc(NC(=O)[C@H](C)NC(=O)[C@H](Cc2ccncc2)NC(=O)c2cccc3ccccc23)cc1
[1]
  IC50: > 1220 nM

## CCOC(=O)[C@@H](C)NC(=O)[C@H](Cc1ccc([N+](=O)[O-])cc1)NC(=O)c1cccc2ccccc12
[1]
  IC50: 3 nM

## O=C(N[C@@H](Cc1ccc([N+](=O)[O-])cc1)C(=O)N[C@H](C(=O)Nc1ccccc1)c1ccccc1)c1cccc2ccccc12
[1]
  IC50: 116 nM

## C[C@H](NC(=O)[C@H](Cc1ccc(Cl)cc1)NC(=O)c1cccc2ccccc12)C(=O)Nc1cccnc1
[1]
  IC50: 27 nM

## O=C(N[C@@H](Cc1ccc([N+](=O)[O-])cc1)C1=NCCO1)c1cccc2ccccc12
Homo sapiens
  IC50: 600 nM
[1]
  IC50: 563 nM

## O=C(CNC(=O)[C@H](Cc1ccc([N+](=O)[O-])cc1)NC(=O)c1cccc2ccccc12)Nc1ccccc1
[1]
  IC50: 400 nM

## CCOC(=O)C1COC([C@H](Cc2ccc([N+](=O)[O-])cc2)NC(=O)c2cccc3ccccc23)=N1 (some centres not stated)
[1]
  IC50: 213 nM

## COc1ccccc1NC(=O)[C@H](C)NC(=O)[C@H](Cc1ccc(C#N)cc1)NC(=O)c1cccc2ccccc12
[1]
  IC50: 125 nM

## CCNC(=O)C(C)NC(=O)[C@H](Cc1ccc([N+](=O)[O-])cc1)NC(=O)c1cccc2ccccc12 (some centres not stated)
[1]
  IC50: 666 nM

## C[C@H](NC(=O)[C@H](Cc1cscn1)NC(=O)c1cccc2ccccc12)C(=O)Nc1ccc(Cl)cc1
[1]
  IC50: 800 nM

## COC(=O)[C@H](Cc1ccc([N+](=O)[O-])cc1)NC(=O)c1cccc2ccccc12
Homo sapiens
  IC50: 38 nM

## C[C@@H](C(=O)Nc1ccccc1)N(C)C(=O)[C@H](Cc1ccc([N+](=O)[O-])cc1)NC(=O)c1cccc2ccccc12
[1]
  IC50: 65 nM

## CC(NC(=O)[C@H](Cc1ccc([N+](=O)[O-])cc1)NC(=O)c1cccc2ccccc12)C(=O)NCc1ccccc1 (some centres not stated)
[1]
  IC50: 300 nM

## COc1ccc(NC(=O)[C@H](C)NC(=O)[C@H](CC2CCCCC2)NC(=O)c2cccc3ccccc23)cc1
[1]
  IC50: 700 nM

## CC(NC(=O)[C@H](Cc1ccc([N+](=O)[O-])cc1)NC(=O)c1cccc2ccccc12)C(=O)N1CCCC1 (some centres not stated)
[1]
  IC50: 1130 nM

## CCOC(=O)c1csc([C@H](Cc2ccc([N+](=O)[O-])cc2)NC(=O)c2cccc3ccccc23)n1
[1]
  IC50: 663 nM

## CCOC(=O)[C@H](C)NC(=O)[C@H](Cc1ccc([N+](=O)[O-])cc1)NC(=O)c1cccc2ccccc12
[1]
  IC50: 383 nM

## COc1ccc(NC(=O)[C@H](C)NC(=O)[C@H](Cc2ccc(Cl)cc2)NC(=O)c2cccc3ccccc23)cc1
[1]
  IC50: 45 nM

## CCOC(=O)c1coc([C@H](Cc2ccc([N+](=O)[O-])cc2)NC(=O)c2cccc3ccccc23)n1
[1]
  IC50: 500 nM

## COc1ccc(C[C@H](NC(=O)c2cccc3ccccc23)C(=O)N[C@@H](C)C(=O)Nc2ccccc2OC)cc1
[1]
  IC50: 15 nM

## COc1ccc(C[C@H](NC(=O)c2cccc3ccccc23)C(=O)N[C@@H](C)C(=O)Nc2ccc(C#N)cc2)cc1
[1]
  IC50: 250 nM

## CCNC(=O)c1csc([C@H](Cc2ccc([N+](=O)[O-])cc2)NC(=O)c2cccc3ccccc23)n1
[1]
  IC50: 18000 nM

## COc1ccc(NC(=O)[C@H](C)NC(=O)[C@H](Cc2ccc(C#N)cc2)NC(=O)c2cccc3ccccc23)cc1
[1]
  IC50: 90 nM

## C[C@H](NC(=O)[C@H](Cc1ccc(Cl)cc1)NC(=O)c1cccc2ccccc12)C(=O)Nc1ccccc1
Homo sapiens
  IC50: 15 nM
[1]
  IC50: 5 nM

## C[C@H](NC(=O)[C@H](Cc1ccc([N+](=O)[O-])cc1)NC(=O)c1cccc2ccccc12)C(=O)N(C)c1ccccc1
[1]
  IC50: 600 nM

## O=C(N[C@@H](Cc1ccc([N+](=O)[O-])cc1)c1cnco1)c1cccc2ccccc12 (racemic)
[1]
  IC50: 22500 nM

## O=C(N[C@@H](Cc1ccc([N+](=O)[O-])cc1)c1nnco1)c1cccc2ccccc12 (racemic)
[1]
  IC50: > 33000 nM

## O=C(N[C@@H](Cc1ccc([N+](=O)[O-])cc1)c1ncco1)c1cccc2ccccc12 (racemic)
[1]
  IC50: > 33000 nM

## CCn1ccnc1[C@H](Cc1ccc([N+](=O)[O-])cc1)NC(=O)c1cccc2ccccc12 (racemic; form 1)
[1]
  IC50: > 33000 nM

## CCn1ccnc1[C@H](Cc1ccc([N+](=O)[O-])cc1)NC(=O)c1cccc2ccccc12 (racemic; form 2)
[1]
  IC50: > 33000 nM

## CCn1ccnc1[C@H](Cc1ccc([N+](=O)[O-])cc1)NC(=O)c1cccc2ccccc12 (racemic; form 3)
[1]
  IC50: 17000 nM
